From paper PMC6983054, “Toxicity and Antitumor Activity of a Thiophene–Acridine Hybrid” (Molecules, 2019) come the findings set out here.

Bounds are passed on as bounds.

The test system of test [1] is HCT-116 cells (human colon carcinoma cell line). In words: MTT cytotoxicity assay, HCT-116. It counts as cell-based. As to conditions: HCT-116, MTT, 72 h, read-out: IC50. The source says: Colorectal carcinoma cells (HCT-116), chronic myelogenous leukemia (K562), and acute promyelocytic leukemia (HL-60) were generously provided by Dr. Manoel de Moraes (Federal University of Ceará, Fortaleza, Brazil) and cultured in Roswell Park Memorial Institute 1640 (RPMI 1640; Sigma Aldrich, St. Louis, MO, USA) medium supplemented with 10% fetal bovine serum (GIBCO, Grand Island, NY, USA) and 1% penicillin–streptomycin (Sigma Aldrich, St. Louis, MO, USA). Human keratinocyte cells (HaCaT; provided by Dr. Jaciana Aguiar from Federal University of Pernambuco, Recife, Pernambuco, Brazil), cervical cancer cells (HeLa; purchased from the cell bank of Rio de Janeiro, Rio de Janeiro, Brazil), and breast cancer cells (MCF-7; provided by Dr. João Ernesto de Carvalho from University of Campinas, Campinas, São Paulo, Brazil) were grown and maintained in Dulbecco’s Modified Eagle’s Medium (DMEM; Sigma Aldrich, St. Louis, MO, USA) supplemented with 10% fetal bovine serum (GIBCO, Grand Island, NY, USA) and 1% penicillin–streptomycin (Sigma Aldrich, St. Louis, MO, USA). All cell types were maintained in 5% CO2 at 37 °C with humidity.
MTT (3-(4,5-dimethylthiazol-2-yl)-2,5-diphenyltetrazolium bromide) reduction assay was used to evaluate the cytotoxicity of ACS03 and its precursors (2-amino-5,6,7,8-tetrahydro-4H-cyclohepta[b]thiophene-3-carbonitrile and 6,9-dichloro-2-methoxyacridine) against tumor and non-tumor cell lines and PBMC. For the MTT assay, cell lines (3 × 10^5 cells/mL) and PBMC (1 × 10^6 cells/mL) were seeded on 96-well plates and cultured for 24 h. ACS03 (3.125–200 µM) was added to the cell cultures and incubated for 72 h. After incubation, 110 µL of the supernatant was removed and 10 μL of the MTT reagent (Sigma Aldrich, St. Louis, MO, USA) was added to each well, and the plates were then incubated at 37 °C. Following 3 h incubation, 100 μL of sodium dodecyl sulfate (SDS) was added to dissolve the formazan crystals produced and left overnight to incubate. The amount of formazan is proportional to the number of viable cells present. The optical density was measured using a microplate spectrophotometer reader (Microplate reader BioTek Instruments, Sinergy HT, Winooski, VT, USA) at λ = 570 nm and used to calculate the IC50 (half maximal inhibitory concentration).
(In general: Tetrazolium dyes change colour on reduction, which living cells bring about.)

A further test concerns nitrite (nitric oxide). Put plainly: Nitrite levels in ascitic fluid, Ehrlich ascites carcinoma model (Griess). As to conditions: peritoneal fluid, 25 mg/kg; control 36.09 ± 0.72 µM. It counts as in vivo, mice (Mus musculus). The method, then:
The nitrite concentration in the ascitic fluid was measured using Griess reagent. For this, the peritoneal fluid of control and treated animals (12.5 mg/kg ACS03 and 25 mg/kg 5-FU) was used. The optical density was measured using a microplate spectrophotometer reader (Microplate reader BioTek Instruments, Sinergy HT, Winooski, VT, USA) at λ = 560 nm. Concentrations of nitrite were calculated from a standard curve previously established with known molar concentrations of sodium nitrite. The tests were done in quadruplicate and the values expressed in µM [51].
A general note: Nitrite, measured by Griess reagent, commonly stands in for NO production.

Turning to `N#Cc1c(N)sc2c1CCCCC2` [2-amino-thiophene, 2-amino-5,6,7,8-tetrahydro-4H-cyclohepta[b]thiophene-3-carbonitrile], the 50% inhibitory concentration (IC50) (in general, the point on the concentration scale where inhibition reaches its midpoint) in test [1] was above 1000 µM.
`O=c1[nH]cc(F)c(=O)[nH]1` [5-FU, 5-fluorouracil, reference compound] yielded a nitrite concentration in the test with nitrite (nitric oxide) of 16.3 ± 2.91 µM.
For `COc1ccc2nc3cc(Cl)ccc3c(Cl)c2c1` [6,9-diclhoro-2-methoxi-acridine, 6,9-dichloro-2-methoxyacridine], the half-inhibitory concentration (IC50) in test [1] was 202.3 ± 1.19 µM.
On the same count and under the same terms, the figure for `COc1cccc2c1C(=O)c1c(O)c3c(c(O)c1C2=O)C[C@@](O)(C(=O)CO)C[C@@H]3O[C@H]1C[C@H](N)[C@H](O)[C@H](C)O1` [Doxorubicin] is 2.59 µM.
